{"source": "patent US20160361291A1", "about": "“METHODS FOR INCREASING SKELETAL MUSCLE PROTEIN SYNTHESIS USING GREEN TEA EXTRACT” (ABBOTT LABORATORIES, priority 2013, published 2016)", "key": {"muscle fiber": {"tested_on": "muscle fiber", "test": "Muscle fiber cross sectional area of aged rats, 8-week diet study", "assay_type": "in vivo, Sprague Dawley rats", "conditions": "200 mg/kg body weight EGCg per day in diet, 8 weeks; p=0.06", "experimental": "(§1) Each of 12 aged Sprague Dawley rats (SD) rats (20 months) were chronically fed the following diets ad libitum for 8 weeks to evaluate the effects on the progression of sarcopenia in the rats:\n(§2) Control diet: AIN-93M (AIN-93M diets are well known balanced diets for rodents); and\n(§3) Test diet: AIN-93M+200 mg/kg body weight of EGCg.\n(§4) The AIN-93M diet was supplemented with EGCG (in the form of TEAVIGO® brand green tea extract) at a concentration of 5 gm/kg diet to deliver a dose of 200 mg/kg body weight of EGCg per day to the SD rat (approximate body weight 500 gm, approximate food intake=20 gm/d) in the test diet.\n(§5) This increased activation was associated with increases in gastrocnemius muscle wet weight and muscle fiber cross sectional area, as shown respectively in FIGS. 3 and 4. Excised gastrocnemius muscles were weighed at the end of the 8 weeks. […] With respect to the muscle fiber cross sectional area, 8-micron muscle sections from the SD rats were dissected, mounted, and stained using hematoxylin & eosin at the end of the 8 week period. Approximately 400 fibers were measured per sample. The results are shown in FIG. 4, in which the SD rats fed the test diet (EGCg treatment) have higher cross sectional areas as compared to that of the SD rats fed the control diet (p=0.06)."}, "mTOR": {"tested_on": "mTOR", "test": "mTOR activation in skeletal muscle of aged rats, 8-week diet study", "assay_type": "in vivo, Sprague Dawley rats", "conditions": "200 mg/kg body weight EGCg per day in AIN-93M diet, 8 weeks, rats aged 20 months; p<0.05", "experimental": "as §1, §2, §3, §4"}, "[1]": {"tested_on": "19S regulatory particle ubiquitin proteasome subunits", "test": "Western blot of 19S regulatory particle ubiquitin proteasome subunits, 8-week diet study", "assay_type": "in vivo, Sprague Dawley rats", "conditions": "200 mg/kg body weight EGCg per day in diet, 8 weeks", "experimental": "as §1, §2, §3, §4\n(§6) Conversely, markers of muscle atrophy such as the 19S regulatory and 20S core particle ubiquitin proteasome subunits, MuRF1, and MAFbx were lower at the end of the 8 weeks in those SD rats fed the test diet (EGCg treatment) as compared to those fed the control diet. […] The components of the Ubiquitin Proteasome Pathway (UPP) as shown in FIGS. 5-8 were measured by western blotting in rats treated with either the test (EGCg treatment) or the control diets."}, "[2]": {"tested_on": "muscle ring finger protein 1 (MuRF1)", "test": "Western blot of MuRF1, 8-week diet study", "assay_type": "in vivo, Sprague Dawley rats", "conditions": "200 mg/kg body weight EGCg per day in diet, 8 weeks", "experimental": "as §1, §2, §3, §4, §6"}, "[3]": {"tested_on": "20S core particle ubiquitin proteasome subunits", "test": "Western blot of 20S core particle ubiquitin proteasome subunits, 8-week diet study", "assay_type": "in vivo, Sprague Dawley rats", "conditions": "200 mg/kg body weight EGCg per day in diet, 8 weeks", "experimental": "as §1, §2, §3, §4, §6"}, "[4]": {"tested_on": "muscle atrophy f-box (MAFbx)", "test": "Western blot of MAFbx, 8-week diet study", "assay_type": "in vivo, Sprague Dawley rats", "conditions": "200 mg/kg body weight EGCg per day in diet, 8 weeks", "experimental": "as §1, §2, §3, §4, §6"}, "gastrocnemius muscle": {"tested_on": "gastrocnemius muscle", "test": "Gastrocnemius muscle wet weight of aged rats, 8-week diet study", "assay_type": "in vivo, Sprague Dawley rats", "conditions": "200 mg/kg body weight EGCg per day in diet, 8 weeks, rats aged 20 months", "experimental": "as §1, §2, §3, §4, §5"}, "C2C12 muscle myotubes": {"tested_on": "C2C12 muscle myotubes", "test": "Muscle protein synthesis in C2C12 myotubes under TNF-α stress (radiolabeled phenylalanine incorporation)", "assay_type": "cell-based, mouse", "conditions": "for protein synthesis as compared to the control: synthesis measured over following 4 hours", "experimental": "The role of EGCg, in the form of […]® brand green tea extract that contains about 95% EGCg (available from DSM of the Netherlands), in stimulating muscle protein synthesis was evaluated in an in vitro cell-based assay using mouse C2C12 muscle myotubes. This assay measured the incorporation of radiolabeled phenylalanine into myotubes in response to various stimuli. C2C12 myoblasts passaged in FCS DMEM (Fetal Calf Serum Dulbecco's Modified Eagle's Medium) were differentiated to myotubes in HS DMEM (Horse Serum Dulbecco's Modified Eagle's Medium). The myotubes were labeled for 24 hours with L-[2,6-3H] phenylalanine prior to compound experimentation. They were then incubated with TNF-α (50 ng/ml) for 2 hours in the absence, or presence of 10 μM or 50 μM of EGCg, and protein synthesis was measured over the following 4 hours."}}}
{"molecule": "O=C(O[C@@H]1Cc2c(O)cc(O)cc2O[C@@H]1c1cc(O)c(O)c(O)c1)c1cc(O)c(O)c(O)c1", "note": "[EGCg, epigallocatechin gallate]", "values": [{"measurement": "muscle fiber cross sectional area vs control diet", "setting": "muscle fiber", "result": "higher"}, {"measurement": "increase in intramuscular phosphorylated mTOR expression (mTOR activation) vs control diet", "setting": "mTOR", "result": 53, "unit": "%"}, {"measurement": "19S regulatory particle ubiquitin proteasome subunit expression vs control diet", "setting": "[1]", "result": "lower"}, {"measurement": "MuRF1 expression vs control diet", "setting": "[2]", "result": "lower"}, {"measurement": "20S core particle ubiquitin proteasome subunit expression vs control diet", "setting": "[3]", "result": "lower"}, {"measurement": "MAFbx expression vs control diet", "setting": "[4]", "result": "lower"}, {"measurement": "greater muscle mass in excised gastrocnemius muscle vs control diet", "setting": "gastrocnemius muscle", "result": "approximately 5%"}, {"measurement": "protein synthesis as compared to the control", "setting": "C2C12 muscle myotubes; 10 μM EGCg plus TNF-α (50 ng/ml, 2 hours), p<0.05", "result": 104, "unit": "%"}, {"measurement": "protein synthesis as compared to the control", "setting": "C2C12 muscle myotubes; 50 μM EGCg plus TNF-α (50 ng/ml, 2 hours), p<0.01", "result": 109, "unit": "%"}]}
{"molecule": "tumor necrosis factor alpha [TNFα, reference compound]", "values": [{"measurement": "drop in protein synthesis as compared to the control", "setting": "C2C12 muscle myotubes; TNF-α alone, 50 ng/ml, 2 hours, p<0.05", "result": 16, "unit": "%"}]}
